Test system: OVCAR-5 complex spheroids with HUVEC/MSC, viability, % test/control
Experiment: Anticancer human tumor OVCAR-5 cell line growth inhibition [AhR];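 further: spheroids exposed to compounds for 7 days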;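 on viability, T/C: 100% = DMSO vehicle control wells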
Conditions: for IC50: curve of first compound; for viability, T/C: stronger effect = lower value
Text: Multicellular complex tumor spheroid response to aryl hydrocarbon receptor antagonists in combination with a variety of drugs and investigational agents in selected tumor cell lines
The current study was undertaken to assess response to aryl hydrocarbon receptor antagonists in combination with standard-of-care drugs and investigational agents in solid tumor complex spheroid models. Complex spheroids include a stromal component modeled by human endothelial cells (HUVEC) and fibroblasts modeled by human mesenchymal stem cells (MSCs). The concentration ranges selected for each drug and investigational agent were based upon clinically achievable concentrations if the clinical Cmax of the agent was known.
Compounds. The drugs and investigational agents: BAY 2416964 (NSC825713), GNF351 (NSC835774), CH-223191 (NSC835775), CPI-455 (NSC825282), aza-TdCyd (NSC777586), decitabine (NSC127716), belinostat (NSC758774), entinostat (NSC756642), pevonedistat (NSC761192), tazemetostat (NSC777109), talazoparib (NSC765396), olaparib (NSC753686), selinexor (NSC780203), nedisertib (M3814, NSC802822), bortezomib (NSC756655), venetoclax (NSC766270), doxorubicin (NSC123127), elimusertib (BAY189344, NSC800525), ceralasertib (AZD6738, NSC777638), TAK-243 (NSC785004), alisertib (NSC759677), etoposide (NSC141540), topotecan (NSC609699), eribulin (NSC707389), gemcitabine (NSC613327), carboplatin (NSC241240), cisplatin (NSC119875), and SN-38 (NSC673596) were obtained from the National Cancer Institute (NCI) Developmental Therapeutics Program Chemical Repository (32). The FDA-approved anticancer drug set is available from the Developmental Therapeutics Program at https://dtp.cancer.gov/organization/dscb/obtaining/available plates.htm. […] The stock solutions were prepared in dimethyl sulfoxide (DMSO, Sigma-Aldrich, St. Louis, MO, cat. D2650), except for the platinum compounds which were prepared in saline (Quality Biological, Gaithersburg, MD, cat. 114-055-101), at 800-fold the tested concentration and stored at -70 degrees C prior to their use. All drugs and investigational agents were tested over a range starting from a high concentration at or near the clinical Cmax and decreasing in half-log increments. If the clinical Cmax for an agent had not been determined, the highest concentration tested was 10 microM (Table 1).
Cell Culture. All cells were maintained in an incubator at 37 degrees C and 5% CO2 with 95% humidity. The PDC lines were cultured according to standard operating procedures established by the NCI PDMR (https://pdmr.cancer.gov). Briefly, all PDCs were thawed and cultured in Matrigel-coated flasks prepared with a working solution of 1X Ham's F-12 nutrient mix, without supplementation (Invitrogen, Waltham, MA, cat. 11765054), 100 U/mL penicillin-streptomycin (Invitrogen, cat. 15140122), and 2.5% Matrigel (Corning Inc., Corning, NY, cat. 354248) for the first three passages. All PDCs were cultured in complete DMEM/F-12 media containing advanced DMEM/F-12 (Invitrogen, cat. 12634028), 4.9% defined fetal bovine serum, heat inactivated (HyClone Laboratories Inc., Logan, UT, cat. SH30070.03HI), 389 ng/mL hydrocortisone (Sigma-Aldrich, cat. H4001), 9.7 ng/mL human EGF recombinant protein (Invitrogen, cat. PHG0313), 23.4 microg/mL adenine (Sigma-Aldrich, cat. A2786), 97.3 U/mL penicillin-streptomycin (Invitrogen, cat. 15140122), 1.9 mM L-glutamine (Invitrogen, cat. 25030081), and 9.7 microM Y-27632 dihydrochloride (Tocris Bioscience, Bristol, United Kingdom, cat. 1254). The PDCs were cultured in complete DMEM/F12 media without 10 microM Y-27632 dihydrochloride for at least two passages prior to the screen. The established cell lines NCI-H1341 and […] were cultured in DMEM/F-12, HEPES (Invitrogen, cat. 11330032), 5% defined fetal bovine serum (HyClone Laboratories Inc., cat. SH30070.03), ITS premix universal culture supplement [insulin (5 microg/mL), transferrin (5 microg/mL), and selenious acid (5 ng/mL)] […]

[1] = second compound 0.1 µM, first compound 0.0316 µM
[2] = second compound 0.1 µM, first compound 0.1 µM
[3] = second compound 0.316 µM, first compound 0.0316 µM
[4] = second compound 0.316 µM, first compound 0.1 µM
[5] = second compound 1 µM, first compound 0.0316 µM
[6] = second compound 1 µM, first compound 0.1 µM
[7] = second compound 3.16 µM, first compound 0.0316 µM
[8] = second compound 3.16 µM, first compound 0.1 µM
[9] = second compound 10 µM, first compound 0.0316 µM
[10] = second compound 10 µM, first compound 0.1 µM
[11] = second compound 0.1 µM, first compound 0.316 µM
[12] = second compound 0.1 µM, first compound 1 µM
[13] = second compound 0.1 µM, first compound 3.16 µM
[14] = second compound 0.1 µM, first compound 10 µM
[15] = second compound 0.316 µM, first compound 0.316 µM
[16] = second compound 0.316 µM, first compound 1 µM
[17] = second compound 0.316 µM, first compound 3.16 µM
[18] = second compound 0.316 µM, first compound 10 µM
[19] = second compound 1 µM, first compound 0.316 µM
[20] = second compound 1 µM, first compound 1 µM
[21] = second compound 1 µM, first compound 3.16 µM
[22] = second compound 1 µM, first compound 10 µM
[23] = second compound 3.16 µM, first compound 0.316 µM
[24] = second compound 3.16 µM, first compound 1 µM
[25] = second compound 3.16 µM, first compound 3.16 µM
[26] = second compound 3.16 µM, first compound 10 µM
[27] = second compound 10 µM, first compound 0.316 µM
[28] = second compound 10 µM, first compound 1 µM
[29] = second compound 10 µM, first compound 3.16 µM
[30] = second compound 10 µM, first compound 10 µM

With `CC[C@@]1(O)C(=O)OCc2c1cc1n(c2=O)Cc2cc3c(CN(C)C)c(O)ccc3nc2-1` + CC(CO)NC(=O)c1cc(-c2ccc(Cl)cc2)nn(-c2cnn(C)c2)c1=O the IC50 (second compound 0.1 µM) was over 100 nM, the IC50 (second compound 0.316 µM) was over 100 nM and the IC50 (second compound 1 µM) was over 100 nM. For the same molecule, the IC50 (second compound 3.16 µM) was over 100 nM, the IC50 (second compound 10 µM) was over 100 nM and the viability, T/C (second compound 0.1 µM, first compound 0.000316 µM) was 112%. For the same molecule, the viability, T/C (second compound 0.1 µM, first compound 0.001 µM) was 105%, the viability, T/C (second compound 0.1 µM, first compound 0.00316 µM) was 105% and the viability, T/C (second compound 0.1 µM, first compound 0.01 µM) was 94.9%. The viability, T/C [1] was 61.9%, the viability, T/C [2] was 50.9% and the viability, T/C (second compound 0.316 µM, first compound 0.000316 µM) was 111%. It also gave a viability, T/C (second compound 0.316 µM, first compound 0.001 µM) of 110%, a viability, T/C (second compound 0.316 µM, first compound 0.00316 µM) of 106% and a viability, T/C (second compound 0.316 µM, first compound 0.01 µM) of 99.5%. The viability, T/C [3] was 59%, the viability, T/C [4] was 54.2% and the viability, T/C (second compound 1 µM, first compound 0.000316 µM) was 119%. It also gave a viability, T/C (second compound 1 µM, first compound 0.001 µM) of 119%, a viability, T/C (second compound 1 µM, first compound 0.00316 µM) of 112% and a viability, T/C (second compound 1 µM, first compound 0.01 µM) of 107%. It also gave a viability, T/C [5] of 59%, a viability, T/C [6] of 56.4% and a viability, T/C (second compound 3.16 µM, first compound 0.000316 µM) of 100%. The viability, T/C (second compound 3.16 µM, first compound 0.001 µM) was 102%, the viability, T/C (second compound 3.16 µM, first compound 0.00316 µM) was 105% and the viability, T/C (second compound 3.16 µM, first compound 0.01 µM) was 93.9%. For the same molecule, the viability, T/C [7] was 52.9%, the viability, T/C [8] was 55.4% and the viability, T/C (second compound 10 µM, first compound 0.000316 µM) was 99.9%. The viability, T/C (second compound 10 µM, first compound 0.001 µM) was 103%, the viability, T/C (second compound 10 µM, first compound 0.00316 µM) was 100% and the viability, T/C (second compound 10 µM, first compound 0.01 µM) was 87.4%. It also gave a viability, T/C [9] of 54.9% and a viability, T/C [10] of 62.8%.

In the case of `COc1cc(C2c3cc4c(cc3C(OC3OC5COC(C)OC5C(O)C3O)C3COC(=O)C23)OCO4)cc(OC)c1O` (stereo not given) + CC(CO)NC(=O)c1cc(-c2ccc(Cl)cc2)nn(-c2cnn(C)c2)c1=O, the IC50 (second compound 0.1 µM) is reported as 3960 nM, the IC50 (second compound 0.316 µM) is reported as 3880 nM and the IC50 (second compound 1 µM) is reported as 5440 nM. For the same molecule, the IC50 (second compound 3.16 µM) was 3920 nM, the IC50 (second compound 10 µM) was 3100 nM and the viability, T/C [1] was 106%. The viability, T/C [2] was 106%, the viability, T/C [11] was 100% and the viability, T/C [12] was 82.8%. It also gave a viability, T/C [13] of 52.7%, a viability, T/C [14] of 38.1% and a viability, T/C [3] of 105%. It also gave a viability, T/C [4] of 109%, a viability, T/C [15] of 101% and a viability, T/C [16] of 86%. For the same molecule, the viability, T/C [17] was 52.7%, the viability, T/C [18] was 36.6% and the viability, T/C [5] was 115%. For the same molecule, the viability, T/C [6] was 112%, the viability, T/C [19] was 107% and the viability, T/C [20] was 84.9%. It also gave a viability, T/C [21] of 59.2%, a viability, T/C [22] of 40.3% and a viability, T/C [7] of 98.9%. The viability, T/C [8] was 102%, the viability, T/C [23] was 98% and the viability, T/C [24] was 71.4%. The viability, T/C [25] was 56.2%, the viability, T/C [26] was 37.4% and the viability, T/C [9] was 96.1%. For the same molecule, the viability, T/C [10] was 97.1%, the viability, T/C [27] was 82.6% and the viability, T/C [28] was 63.5%. The viability, T/C [29] was 52.7% and the viability, T/C [30] was 40.1%.

Work on `Nc1ccn(C2OC(CO)C(O)C2(F)F)c(=O)n1` (stereo not given) + CC(CO)NC(=O)c1cc(-c2ccc(Cl)cc2)nn(-c2cnn(C)c2)c1=O yielded an IC50 (second compound 0.1 µM) of under 31.6 nM, an IC50 (second compound 0.316 µM) of under 31.6 nM and an IC50 (second compound 1 µM) of under 31.6 nM. It also gave an IC50 (second compound 3.16 µM) of under 31.6 nM, an IC50 (second compound 10 µM) of under 31.6 nM and a viability, T/C [1] of 34.6%. The viability, T/C [2] was 32.1%, the viability, T/C [11] was 28.1% and the viability, T/C [12] was 29.9%. For the same molecule, the viability, T/C [13] was 30.9%, the viability, T/C [14] was 29.4% and the viability, T/C [3] was 32.9%. For the same molecule, the viability, T/C [4] was 29.8%, the viability, T/C [15] was 28.9% and the viability, T/C [16] was 28.5%. The viability, T/C [17] was 31.5%, the viability, T/C [18] was 30.2% and the viability, T/C [5] was 36.1%. For the same molecule, the viability, T/C [6] was 32.4%, the viability, T/C [19] was 29.6% and the viability, T/C [20] was 30.4%. For the same molecule, the viability, T/C [21] was 31.3%, the viability, T/C [22] was 30.1% and the viability, T/C [7] was 37%. It also gave a viability, T/C [8] of 32.3%, a viability, T/C [23] of 29.6% and a viability, T/C [24] of 28.9%. It also gave a viability, T/C [25] of 28.7%, a viability, T/C [26] of 29.6% and a viability, T/C [9] of 39.6%. It also gave a viability, T/C [10] of 33.9%, a viability, T/C [27] of 30.9% and a viability, T/C [28] of 31.2%. The viability, T/C [29] was 32.8% and the viability, T/C [30] was 33.8%.

From PubChem BioAssay AID1919015 (Molecular Pharmacology Branch, DTP, NCI, 2023)
